Measured values from patent publication US20250144067A1, “PERSONALIZED STARVATION THERAPY FOR CANCER” (Faeth Therapeutics, Inc., priority 2021, published 2025).
Structures can show the parent of a compound that is named as a salt. Where two headings read alike, the source gives them in different places.

Key:
[1] = system: NCI-H292 lung cancer cells; assay: FDA drug screening, complete media vs cholesterol-free media without statin (TABLE 1); assay type: cell-based, human
[2] = system: NCI-H292 lung cancer cells; assay: FDA drug screening, complete media vs cholesterol-free media with simvastatin (TABLE 2); assay type: cell-based, human
[3] = NCI-H292 cells, cholesterol-free media without statin
[4] = complete vs cholesterol-free media, greater than 0 enhanced anti-cancer activity, about 0 neutral, below 0 antagonists
[5] = NCI-H292 cells, FDA library drug in cholesterol-free media with simvastatin 0.04 μM
[6] = NCI-H292 cells, FDA library drug in complete media
[7] = complete media vs cholesterol-free media + simvastatin (0.04 μM), >0 enhanced anti-cancer activity, about 0 neutral, <0 antagonist
[8] = Complete minus Cholesterol-free, greater than 0 enhanced anti-cancer activity, about 0 neutral, below 0 antagonist
[9] = NCI-H292 cells, FDA drug library screen, cholesterol-free media without statin
[10] = NCI-H292 cells, FDA drug library screen, complete media
[11] = Complete minus Cholesterol-free, >0 enhanced anti-cancer activity, about 0 neutral, <0 antagonist
[12] = NCI-H292 cells, drug in cholesterol-free media with simvastatin 0.04 μM
[13] = NCI-H292 cells, drug in complete media
[14] = NCI-H292 cells, FDA drug library screen, cholesterol-free media with simvastatin 0.04 μM
[15] = NCI-H292 cells, cholesterol-free media with simvastatin 0.04 μM, cell growth value in FDA drug screen
[16] = NCI-H292 cells, complete media, cell growth value in FDA drug screen
[17] = complete media minus cholesterol-free media + simvastatin, >0 enhanced anti-cancer activity, about 0 neutral, <0 antagonist

## CCn1cc(C(=O)O)c(=O)c2cc(F)c(N3CCNC(C)C3)c(F)c21 (stereo not shown) [Lomefloxacin (hydrochloride)]
[1]; [3]
  Cholesterol-free: 1.531
[1]; [4]
  Difference: −0.37
[2]; [5]
  Cholesterol-free media + simvastatin (0.04 μM): 1.657
[2]; [6]
  Complete Media: 0.934
[2]; [7]
  Difference: −0.72

## COc1ccc(CN2CCN(C(c3ccc(F)cc3)c3ccc(F)cc3)CC2)c(OC)c1OC [Lomerizine dihydrochloride]
[1]; [8]
  Difference: −0.12
[1]; [9]
  Cholesterol-free: 1.023
[1]; [10]
  Complete: 0.8999
[2]; [5]
  Cholesterol-free media + simvastatin (0.04 μM): 1.178
[2]; [6]
  Complete Media: 0.8678
[2]; [7]
  Difference: −0.31

## O=C(NC1CCN(CCCCC2(C(=O)NCC(F)(F)F)c3ccccc3-c3ccccc32)CC1)c1ccccc1-c1ccc(C(F)(F)F)cc1 [Lomitapide]
[1]; [11]
  Difference: −0.25
[1]; [3]
  Cholesterol-free: 0.9551
[1]; NCI-H292 cells, complete media
  Complete: 0.7097
[2]; [12]
  Cholesterol-free media + simvastatin (0.04 μM): 1.325
[2]; [13]
  Complete Media: 1.07
[2]; [7]
  Difference: −0.25

## O=NN(CCCl)C(=O)NC1CCCCC1 [Lomustine]
[1]; Complete minus Cholesterol-free, […]
  Difference: −0.14
[1]; [9]
  Cholesterol-free: 1.107
[1]; [10]
  Complete: 0.965
[2]; NCI-H292 cells, cholesterol-free media with simvastatin 0.04 μM, FDA drug library screen (TABLE 2)
  Cholesterol-free media + simvastatin (0.04 μM): 0.7579
[2]; NCI-H292 cells, complete media, FDA drug library screen (TABLE 2)
  Complete Media: 0.7602
[2]; complete media minus cholesterol-free media + simvastatin (0.04 μM), […]
  Difference: 0.00

## CN(C)C(=O)C(CCN1CCC(O)(c2ccc(Cl)cc2)CC1)(c1ccccc1)c1ccccc1 [Loperamide (hydrochloride)]
[1]
  Cholesterol-free: 1.105
  Complete: 0.9631
  Difference: −0.14
[2]
  Cholesterol-free media + simvastatin (0.04 μM): 1.197
  Complete Media: 0.9577
  Difference: −0.24

## Cc1cccc(C)c1OCC(=O)N[C@@H](Cc1ccccc1)[C@@H](O)C[C@H](Cc1ccccc1)NC(=O)[C@H](C(C)C)N1CCCNC1=O [Lopinavir]
[1]; [3]
  Cholesterol-free: 1.281
[1]; NCI-H292 cells, complete media
  Complete: 0.8723
[1]; [4]
  Difference: −0.41
[2]; [14]
  Cholesterol-free media + simvastatin (0.04 μM): 1.549
[2]; [10]
  Complete Media: 1.393
[2]; [7]
  Difference: −0.16

## CCOC(=O)N1CCC(=C2c3ccc(Cl)cc3CCc3cccnc32)CC1 [Loratadine]
[1]; [11]
  Difference: −0.30
[1]; [3]
  Cholesterol-free: 1.122
[1]; NCI-H292 cells, complete media
  Complete: 0.8264
[2]; [15]
  Cholesterol-free media + simvastatin (0.04 μM): 0.8147
[2]; [16]
  Complete Media: 0.9097
[2]; [17]
  Difference: 0.10

## C[C@H]1Oc2cc(cnc2N)-c2c(nn(C)c2C#N)CN(C)C(=O)c2ccc(F)cc21 [Lorlatinib]
[1]; [3]
  Cholesterol-free: 1.143
[1]; NCI-H292 cells, complete media
  Complete: 0.8052
[1]; [4]
  Difference: −0.34
[2]; [14]
  Cholesterol-free media + simvastatin (0.04 μM): 0.9476
[2]; [17]
  Difference: 0.20

## CN1C(C(=O)Nc2ccccn2)=C(O)c2sc(Cl)cc2S1(=O)=O [Lornoxicam]
[1]; [3]
  Cholesterol-free: 1.174
[1]; NCI-H292 cells, complete media
  Complete: 0.811
[1]; [4]
  Difference: −0.36
[2]; [14]
  Cholesterol-free media + simvastatin (0.04 μM): 1.072
[2]; [10]
  Complete Media: 0.9888
[2]; [7]
  Difference: −0.08

## CCCCc1nc(Cl)c(CO)n1Cc1ccc(-c2ccccc2-c2nn[nH]n2)cc1 [Losartan (potassium)]
[1]; [11]
  Difference: −0.24
[1]; [3]
  Cholesterol-free: 1.05
[1]; NCI-H292 cells, complete media
  Complete: 0.8102
[2]; [12]
  Cholesterol-free media + simvastatin (0.04 μM): 1.17
[2]; [13]
  Complete Media: 0.9634
[2]; [7]
  Difference: −0.21

## CCCCc1nc(Cl)c(CO)n1Cc1ccc(-c2ccccc2-c2nn[nH]n2)cc1 [Losartan]
[1]; [11]
  Difference: −0.28
[1]; [3]
  Cholesterol-free: 1.549
[1]; NCI-H292 cells, complete media
  Complete: 1.271
[2]; [5]
  Cholesterol-free media + simvastatin (0.04 μM): 1.37
[2]; [6]
  Complete Media: 0.8741
[2]; [7]
  Difference: −0.50

## CCOC(=O)O[C@]1(C(=O)OCCl)CC[C@H]2[C@@H]3CCC4=CC(=O)C=C[C@]4(C)[C@H]3[C@@H](O)C[C@@]21C [Loteprednol Etabonate]
[1]; NCI-H292 cells, cholesterol-free media without statin, FDA drug library screen
  Cholesterol-free: 0.5384
[1]; NCI-H292 cells, complete media, FDA drug library screen
  Complete: 0.8969
[1]; complete vs cholesterol-free media, >0 enhanced anti-cancer activity, about 0 neutral, <0 antagonist
  Difference: 0.36
[2]; [14]
  Cholesterol-free media + simvastatin (0.04 μM): 0.9128
[2]; [10]
  Complete Media: 1.184
[2]; [17]
  Difference: 0.27

## CC[C@H](C)C(=O)O[C@H]1C[C@@H](C)C=C2C=C[C@H](C)[C@H](CC[C@@H]3C[C@@H](O)CC(=O)O3)[C@H]21 [Lovastatin]
[1]; [8]
  Difference: −0.11
[1]; [9]
  Cholesterol-free: 0.7089
[1]; [10]
  Complete: 0.603
[2]; [14]
  Cholesterol-free media + simvastatin (0.04 μM): 0.5184
[2]; [10]
  Complete Media: 0.7992
[2]; [17]
  Difference: 0.28

## CN1CCN(C2=Nc3ccccc3Oc3ccc(Cl)cc32)CC1 [Loxapine]
[1]; [11]
  Difference: −0.26
[1]; [3]
  Cholesterol-free: 1.313
[1]; NCI-H292 cells, complete media
  Complete: 1.056
[2]; [15]
  Cholesterol-free media + simvastatin (0.04 μM): 0.8194
[2]; [16]
  Complete Media: 0.9125
[2]; [17]
  Difference: 0.09
